We go through 21 molecules from patent US8937091B2 (Japan Science and Technology Agency, priority 2009, dated 2015).

For assay [1], the system named is SOCE (store operated calcium entry) in CHO cells. Nature of the assay: Assay of SOCE (store operated calcium entry)-inhibiting action. In kind it is cell-based, Chinese hamster. The following applies: CHO cells, thapsigargin; for inhibition at 10 µM / inhibition at 30 µM / inhibition at 100 µM: Cricetulus griseus, CHO, read-out: SOCE level (percentage of inhibition). As to the method:
The extracellular fluid (i.e., medium) of cultured Chinese hamster ovary (CHO) cells was replaced by BSS containing no calcium. One minute later, a test compound was added. Two minutes later, 1 μM thapsigargin was added to cause depletion of the intracellular calcium store. Nine minutes later, calcium chloride (final concentration: 2 mM) was added to the extracellular fluid. The SOCE-inhibiting action levels at different compound concentrations after the addition of calcium chloride were determined as the percentage of inhibition (%) by evaluating the influence of the compound on the degree of increase in the intracellular calcium concentration.
(§1) Hereafter, the numerals in parentheses written after the TG level, the SOCE level, and the IICR level correspond to the test compound concentrations. The number following the name of each title compound used in the Examples below represents a compound ID number designated arbitrarily by the present inventors.

For assay [2], the system named is IICR (IP3 induced calcium release) in CHO cells. Kind of assay: Assay of IICR (IP3 induced calcium release)-inhibiting action. In kind it is cell-based, Chinese hamster. The conditions noted are these: CHO cells, 10 μM ATP; for inhibition at 10 µM / inhibition at 30 µM / inhibition at 100 µM: Cricetulus griseus, CHO, read-out: IICR level (percentage of inhibition). As for the experimental part: The extracellular fluid (i.e., medium) of cultured CHO cells was replaced by BSS containing calcium. One minute later, a test compound was added. Two minutes later, 10 μM ATP was added. The IICR-inhibiting action levels at different compound concentrations after the addition of ATP were determined as the percentage of inhibition (%) by evaluating the influence of the compound on the degree of increase in the intracellular calcium concentration.
as §1

Broadly, the inhibition is the percentage by which the read-out fell short of the control. Take `CC(C)(C)N(CCC(=O)c1ccc(Cc2ccccc2)cc1)Cc1ccccc1` [Example 105, 2-(N-t-butylbenzyl)aminoethyl-4-benzylphenylketone]: the inhibition at 10 µM in assay [1] (test compound 10 μmol) is 0%; in assay [2] (test compound 10 μmol), 40%. The inhibition at 30 µM in assay [1] (test compound 30 μmol) was 20%; in assay [2] (test compound 30 μmol) it was 70%. For the same molecule, the inhibition at 100 µM in assay [1] (test compound 100 μmol) is 40%; in assay [2] (test compound 100 μmol) it was 90%.
Take `CCCCN(CCCC)CCC(=O)c1ccc(Br)s1` [Example 338, 2-(N,N-di-n-butyl)aminoethyl-5-bromo-2-thienylketone]: the inhibition at 10 µM in assay [1] (test compound 10 μmol) was 0%; in assay [2] (test compound 10 μmol), 50%. Moreover, the inhibition at 30 µM was determined as 0% in assay [1] (test compound 30 μmol) and 50% in assay [2] (test compound 30 μmol). In addition, the values for the inhibition at 100 µM in assay [1] (test compound 100 μmol) and in assay [2] (test compound 100 μmol) were 24% and 60%, respectively.
Take `CN(CCC(=O)c1ccc(Cl)s1)Cc1ccccc1` [Example 279, 2-(N-methylbenzyl)aminoethyl-5-chloro-2-thienylketone]: the inhibition at 30 µM in assay [1] (test compound 30 μmol) came to 30%; in assay [2] (test compound 30 μmol), 0%. The inhibition at 100 µM in assay [1] (test compound 100 μmol) and in assay [2] (test compound 100 μmol) was 40% in each case. The inhibition at 10 µM in assay [2] (test compound 10 μmol) stood at 20%.
Take `CC(C)N(CCC(=O)c1ccncc1)C(C)C` [Example 397, 2-diisopropylaminoethyl-4-pyridylketone]: the inhibition at 10 µM in assay [1] (test compound 10 μmol) came out at 20%; in assay [2] (test compound 10 μmol) it was 0%. The inhibition at 30 µM in assay [1] (test compound 30 μmol) was found to be 40%; in assay [2] (test compound 30 μmol), 0%. The figures for the inhibition at 100 µM in assay [1] (test compound 100 μmol) and in assay [2] (test compound 100 μmol) were 50% and 10%, respectively.
For the molecule `Cc1cc(C(=O)CCN(CCO)Cc2ccccc2)oc1C` [Example 227, 2-(N-2-hydroxyethylbenzyl)aminoethyl-4,5-dimethyl-2-furylketone], the inhibition at 10 µM in assay [1] (test compound 10 μmol) stood at 0%; in assay [2] (test compound 10 μmol) it was 20%. The inhibition at 30 µM in assay [1] (test compound 30 μmol) and in assay [2] (test compound 30 μmol) was 0% throughout. In addition, the inhibition at 100 µM was 0% in assay [1] (test compound 100 μmol) and 20% in assay [2] (test compound 100 μmol).
As for `Cc1ccc(C(=O)CCN(Cc2ccccc2)C(C)C)cc1` [Example 65, 2-(N-isopropylbenzyl)aminoethyl-4-methylphenylketone], the inhibition at 10 µM in assay [1] (test compound 10 μmol) was 0%; in assay [2] (test compound 10 μmol) it was 30%. The inhibition at 30 µM is 0% in assay [1] (test compound 30 μmol) and 10% in assay [2] (test compound 30 μmol). The inhibition at 100 µM in assay [1] (test compound 100 μmol) and in assay [2] (test compound 100 μmol) was 30% in each case.
`CN(CCO)CCC(=O)c1ccco1` [Example 235, 2-(N-2-hydroxyethylmethyl)aminoethyl-2-furylketone]: the inhibition at 10 µM in assay [1] (test compound 10 μmol) and in assay [2] (test compound 10 μmol) was 0% throughout. The figures for the inhibition at 30 µM in assay [1] (test compound 30 μmol) and in assay [2] (test compound 30 μmol) were 0% and 90%, respectively. In addition, the inhibition at 100 µM in assay [1] (test compound 100 μmol) stood at 0%; in assay [2] (test compound 100 μmol), 80%.
`CN(CCC(=O)c1ccco1)Cc1ccccc1` [Example 233, 2-(N-benzylmethyl)aminoethyl-2-furylketone]: the inhibition at 10 µM in assay [1] (test compound 10 μmol) is 0%; in assay [2] (test compound 10 μmol), 30%. In addition, the inhibition at 30 µM in assay [1] (test compound 30 μmol) was found to be 0%; in assay [2] (test compound 30 μmol), 70%. Besides, the figures for the inhibition at 100 µM in assay [1] (test compound 100 μmol) and in assay [2] (test compound 100 μmol) were 10% and 80%, respectively.
Regarding `O=C(CCN1CCCCC1CO)c1cccs1` (stereo not shown) [Example 127], the results for the inhibition at 10 µM in assay [1] (test compound 10 μmol) and in assay [2] (test compound 10 μmol) were 0% and 20%, respectively. For the same molecule, the figures for the inhibition at 30 µM in assay [1] (test compound 30 μmol) and in assay [2] (test compound 30 μmol) were 0% and 20%, respectively. In addition, the figures for the inhibition at 100 µM in assay [1] (test compound 100 μmol) and in assay [2] (test compound 100 μmol) were 10% and 50%, respectively.
As for `O=C(CCN(CCO)CCO)c1ccccn1` [Example 243, 2-(N-bis-2-hydroxyethyl)aminoethyl-2-pyridylketone], the inhibition at 10 µM in assay [1] (test compound 10 μmol) and in assay [2] (test compound 10 μmol) was 0% throughout. Further, the inhibition at 30 µM in assay [1] (test compound 30 μmol) and in assay [2] (test compound 30 μmol) was 0% in each case. Also, the inhibition at 100 µM in assay [1] (test compound 100 μmol) worked out at 0%; in assay [2] (test compound 100 μmol), 50%.
As for `O=C(CCNC12CC3CC(CC(C3)C1)C2)c1ccccc1` [Example 189, 2-N-adamantaneaminoethylphenylketone], the inhibition at 10 µM in assay [1] (test compound 10 μmol) and in assay [2] (test compound 10 μmol) was 0% throughout. Besides, the inhibition at 30 µM is 10% in assay [1] (test compound 30 μmol) and 0% in assay [2] (test compound 30 μmol). The figures for the inhibition at 100 µM in assay [1] (test compound 100 μmol) and in assay [2] (test compound 100 μmol) were 10% and 0%, respectively.
In the case of `CC(CN(Cc1ccccc1)C(C)(C)C)C(=O)c1ccc(F)cc1` (stereo not shown) [Example 162, 2-(N-t-butylbenzyl)amino-1-methylethyl-4-fluorophenylketone], the inhibition at 10 µM in assay [1] (test compound 10 μmol) and in assay [2] (test compound 10 μmol) was 0% in each case. For the same molecule, the inhibition at 30 µM in assay [1] (test compound 30 μmol) and in assay [2] (test compound 30 μmol) was 0% in each case. Moreover, the inhibition at 100 µM in assay [1] (test compound 100 μmol) is 40%; in assay [2] (test compound 100 μmol), 0%.
On to `CC(C)N(CCO)CCC(=O)c1ccccc1` [Example 312, 2-(N-hydroxyethylisopropyl)aminoethylphenylketone], for which the results for the inhibition at 10 µM in assay [1] (test compound 10 μmol) and in assay [2] (test compound 10 μmol) were 0% and 20%, respectively. Moreover, the inhibition at 30 µM in assay [1] (test compound 30 μmol) stood at 0%; in assay [2] (test compound 30 μmol) it was 20%. Further, the inhibition at 100 µM worked out at 10% in assay [1] (test compound 100 μmol) and 80% in assay [2] (test compound 100 μmol).
As for `CCN(CCC(=O)c1ccncc1)Cc1ccccc1` [Example 209, 2-(N-ethylbenzyl)aminoethyl-4-pyridylketone], the inhibition at 10 µM in assay [1] (test compound 10 μmol) was 0%; in assay [2] (test compound 10 μmol) it was 20%. Further, the inhibition at 30 µM in assay [1] (test compound 30 μmol) and in assay [2] (test compound 30 μmol) was 20% each time. Moreover, the inhibition at 100 µM in assay [1] (test compound 100 μmol) is 60%; in assay [2] (test compound 100 μmol), 50%.
`COC(=O)C(CSSCC(NCCC(=O)c1ccco1)C(=O)OC)NCCC(=O)c1ccco1` (stereo not shown) [Example 401, N,N-bis(2-furoylethyl)cystinemethylester]: the inhibition at 10 µM was determined as 20% in assay [1] (test compound 10 μmol) and 31% in assay [2] (test compound 10 μmol). Also, the inhibition at 30 µM in assay [1] (test compound 30 μmol) worked out at 40%; in assay [2] (test compound 30 μmol), 1%. The inhibition at 100 µM in assay [1] (test compound 100 μmol) turned out to be 50%; in assay [2] (test compound 100 μmol) it was 57%.
For `CC(C)(C)N(CCO)CCC(=O)c1ccc(Br)s1` [Example 294, 2-(N-2-hydroxyethyl-t-butyl)aminoethyl-5-bromo-2-thienylketone], in assay [1] (test compound 10 μmol), the inhibition at 10 µM came to 0%. Moreover, the inhibition at 100 µM came out at 10% in assay [1] (test compound 100 μmol) and 50% in assay [2] (test compound 100 μmol). Moreover, the entries for the “IICR level (percentage of inhibition)” value in assay [2] (test compound 10 μmol) and in assay [2] (test compound 30 μmol) were 70% and 40%, respectively.
For `CCCCN(CCC(=O)c1ccc(Br)s1)c1ccccc1` [Example 337, 2-(N-phenyl-N-n-butyl)aminoethyl-5-bromo-2-thienylketone], the inhibition at 10 µM in assay [1] (test compound 10 μmol) came out at 20%; in assay [2] (test compound 10 μmol), 50%. In addition, the inhibition at 30 µM in assay [1] (test compound 30 μmol) is 30%; in assay [2] (test compound 30 μmol), 20%. In addition, the inhibition at 100 µM is 40% in assay [1] (test compound 100 μmol) and 0% in assay [2] (test compound 100 μmol).
In the case of `O=C(CCNCCS)c1ccc(Br)s1` [Example 335, 2-(N-mercaptoethyl)aminoethyl-5-bromo-2-thienylketone], the results for the inhibition at 10 µM in assay [1] (test compound 10 μmol) and in assay [2] (test compound 10 μmol) were 20% and 10%, respectively. The inhibition at 30 µM in assay [1] (test compound 30 μmol) came out at 30%; in assay [2] (test compound 30 μmol), 50%. Also, the inhibition at 100 µM came to 50% in assay [1] (test compound 100 μmol) and 70% in assay [2] (test compound 100 μmol).
As for `CCN(CCC(=O)c1ccco1)Cc1ccccc1` [Example 142, 2-(N-benzylethyl)aminoethyl-2-furylketone], the results for the inhibition at 10 µM in assay [1] (test compound 10 μmol) and in assay [2] (test compound 10 μmol) were 0% and 40%, respectively. Moreover, the inhibition at 30 µM in assay [1] (test compound 30 μmol) stood at 0%; in assay [2] (test compound 30 μmol), 50%. For the same molecule, the inhibition at 100 µM in assay [1] (test compound 100 μmol) was determined as 0%; in assay [2] (test compound 100 μmol) it was 80%.
As to `CCC(=O)C(CCC(=O)c1ccc2ccccc2c1)C(=O)OC` (stereo not shown) [Example 98, 3-propionyl-3-methoxycarbonylpropyl-2-naphthylketone], the inhibition at 10 µM in assay [1] (test compound 10 μmol) and in assay [2] (test compound 10 μmol) was 0% each time. The inhibition at 30 µM in assay [1] (test compound 30 μmol) amounted to 10%; in assay [2] (test compound 30 μmol), 0%. Moreover, the inhibition at 100 µM in assay [1] (test compound 100 μmol) is 60%; in assay [2] (test compound 100 μmol), 0%.
`O=C(CCN(CCO)CCO)c1ccco1` [Example 174, 2-(N-bis(hydroxyethyl))aminoethyl-2-furylketone]: the “SOCE level (percentage of inhibition)” value in assay [1] (test compound 10 μmol), in assay [1] (test compound 30 μmol) and in assay [1] (test compound 100 μmol) was 0% in each case. The “IICR level (percentage of inhibition)” value in assay [2] (test compound 10 μmol), in assay [2] (test compound 30 μmol) and in assay [2] (test compound 100 μmol) was 0% in each case.
